In US8802678B2, “Carbonylated (aza) cyclohexanes as dopamine D3 receptor ligands” (Bioprojet, priority 2006, dated 2014) one finds melting point data, which are given here for 44 compounds.

The structures appear in SMILES notation.

In turn, `O=C(C=C1CCC(CCN2CCN(c3ccccc3F)CC2)CC1)NCC(F)(F)F` (centres unmarked) [Example 303, 2-(4-{2-[4-(2-Fluorophenyl)-piperazin-1-yl]ethyl}cyclo-hexylidene)-N-(2,2,2-trifluoroethyl)acetamide] showed a melting point of 125 °C.
The compound `N#CCC(=O)N[C@H]1CC[C@H](CCN2CCN(c3ccc(Cl)cc3)CC2)CC1` [Example 275, N-(4-{2-[4-(4-Chlorophenyl)piperazin-1-yl]ethyl}cyclohexyl)-2-cyanoacetamide] came in with a melting point of 247 °C.
Compound `O=C(N[C@H]1CC[C@H](CCN2CCN(c3ccc(Cl)cc3F)CC2)CC1)C1=CCCC1` [Example 517, Cyclopent-1-enecarboxylic acid (4-{2-[4-(4-chloro-2-fluorophenyl)piperazin-1-yl]ethyl}cyclohexyl) amide] registered a melting point of 216 °C.
Then `Cc1cc(C)cc(N2CCN(CC[C@H]3CC[C@H](NC(=O)CCC#N)CC3)CC2)c1` [Example 716, 3-Cyano-N-(4-{2-[4-(3,5-dimethylphenyl)piperazin-1-yl]ethyl}cyclohexyl)propanamide], with 175 °C; and `CC(=O)CN1CCC(CCN2CCN(c3ccc(F)c(C#N)c3Cl)CC2)CC1.Cl.Cl`, with 291 °C; and `N#CCC(=O)N[C@H]1CC[C@H](CCN2CCN(c3ccc(F)c(Cl)c3F)CC2)CC1` [Example 551, N-(4-{2-[4-(3-Chloro-2,4-difluorophenyl)piperazin-1-yl]ethyl}cyclohexyl)-2-cyanoacetamide], with 198 °C.
`N#CCC(=O)N[C@H]1CC[C@H](CCN2CCN(c3cccc4cccnc34)CC2)CC1` [Example 237, 2-Cyano-N-{4-[2-(4-quinolin-8-ylpiperazin-1-yl)ethyl]-cyclohexyl}acetamide] came in with a melting point of 225 °C.
`O=C(N[C@H]1CC[C@H](CCN2CCN(c3ccc(F)cc3F)CC2)CC1)C1=CCCCC1` [Example 71, Cyclohex-1-enecarboxylic acid (4-{2-[4-(2,4-difluorophenyl)-piperazin-1-yl]ethyl}-cyclohexyl)amide]: the melting point worked out at 203 °C.
Then `N#CCC(=O)N[C@H]1CC[C@H](CCN2CCN(c3cccc(Br)c3)CC2)CC1` [Example 280, N-(4-{2-[4-(3-Bromophenyl)piperazin-1-yl]ethyl}cyclohexyl)-2-cyanoacetamide], with 168 °C; and `N#CCC(=O)N[C@H]1CC[C@H](CCN2CCN(c3cccc4ncccc34)CC2)CC1` [Example 239, 2-Cyano-N-{4-[2-(4-quinolin-5-ylpiperazin-1-yl)ethyl]cyclohexyl}acetamide], with 220 °C; and `N#CCCCC(=O)N[C@H]1CC[C@H](CCN2CCN(c3cc(F)cc(Cl)c3)CC2)CC1` [Example 259, N-(4-{2-[4-(3-Chloro-5-fluorophenyl)piperazin-1-yl]ethyl}cyclohexyl)-4-cyanobutanamide], with 158 to 159 °C.
Take `COCCCC(=O)N[C@H]1CC[C@H](CCN2CCN(c3ccc(F)c(C#N)c3)CC2)CC1` [Example 661, N-(4-{2-[4-(3-Cyano-4-fluorophenyl)piperazin-1-yl]ethyl}cyclohexyl)-4-methoxybutanamide]: the melting point came out at 197 °C.
The compound `COc1cc(N2CCN(CC[C@H]3CC[C@H](NC(=O)CCCC#N)CC3)CC2)cc(C(F)(F)F)c1` [Example 421, 4-Cyano-N-(4-{2-[4-(3-methoxy-5-trifluoromethylphenyl)piperazin-1-yl]ethyl}cyclohexyl)butanamide] gave a melting point of 147 °C.
Then `CC(=O)CN1CCC(CCN2CCN(c3ccc(F)c(F)c3)CC2)CC1.Cl.Cl`, with 249 °C; and `CCOCC(=O)N[C@H]1CC[C@H](CCN2CCN(c3cc(Cl)ccc3Cl)CC2)CC1` [Example 521, N-(4-{2-[4-(2,5-Dichlorophenyl)-piperazin-1-yl]ethyl}cyclohexyl)-2-ethoxyacetamide], with 128 °C; and `CC(=O)CN1CCC(CCN2CCN(c3cc(F)c(F)cc3F)CC2)CC1` [Example 744, 1-(4-{2-[4-(2,4,5-Trifluoro-phenyl)-piperazin-1-yl]ethyl}piperidin-1-yl)propan-2-one], with 68 °C.
The compound `O=C(CCC(F)(F)F)N[C@H]1CC[C@H](CCN2CCN(c3cccc(C(F)(F)F)c3)CC2)CC1` [Example 265, 4,4,4-Trifluoro-N-(4-{2-[4-(3-trifluoromethylphenyl)piperazin-1-yl]ethyl}cyclohexyl)butanamide] yielded a melting point of 152 °C.
Then `CC(C)(C)c1cccc(N2CCN(CC[C@H]3CC[C@H](NC(=O)CC#N)CC3)CC2)c1` [Example 169, N-(4-{2-[4-(3-tert-Butylphenyl)piperazin-1-yl]ethyl}cyclohexyl)-2-cyanoacetamide], with 150 °C; and `COCC(=O)N[C@H]1CC[C@H](CCN2CCN(c3cc(C(F)(F)F)cc(C(F)(F)F)c3)CC2)CC1` [Example 118, N-(4-{2-[4-(3,5-Bistrifluoro-methylphenyl)piperazin-1-yl]ethyl}cyclohexyl)-2-methoxyacetamide], with 164 °C.
Then `Cc1ccc(C)c(N2CCN(CC[C@H]3CC[C@H](NC(=O)CCCC#N)CC3)CC2)c1` [Example 413, 4-Cyano-N-(4-{2-[4-(2,5-dimethylphenyl)piperazin-1-yl]ethyl}cyclohexyl)butanamide], with 158 °C; and `N#CCC(=O)N[C@H]1CC[C@H](CCN2CC=C(c3cc(C(F)(F)F)ccc3F)CC2)CC1`, with 168 °C.
Then `N#CCCCC(=O)N[C@H]1CC[C@H](CCN2CCN(c3ccc(F)c(C#N)c3)CC2)CC1` [Example 662, 4-Cyano-N-(4-{2-[4-(3-cyano-4-fluorophenyl)piperazin-1-yl]ethyl}cyclohexyl)butanamide], with 158 °C; and `CC(=O)CN1CCC(CCN2CCN(c3cc(Cl)ccc3C)CC2)CC1.Cl.Cl`, with 259 °C.
In turn, `Cc1ccc(Cl)cc1N1CCN(CC[C@H]2CC[C@H](NC(=O)CC#N)CC2)CC1` [Example 155, N-(4-{2-[4-(5-Chloro-2-methylphenyl)piperazin-1-yl]ethyl}cyclohexyl)-2-cyanoacetamide] returned a melting point of 171 to 172 °C.
Compound `CC(=O)CN1CCC(CCN2CCN(c3cccc(F)c3F)CC2)CC1.Cl.Cl` registered a melting point of 270 °C.
Then `CC(=O)CC1CCC(CCN2CCN(c3cccc(C(F)(F)F)c3)CC2)CC1.Cl` (centres unmarked), with 160 °C; and `CC(=O)CN1CCC(CCN2CCN(c3cc(C(C)(C)C)cc(C(C)(C)C)c3)CC2)CC1.Cl.Cl`, with 308 °C; and `CC(=O)CN1CCC(CCN2CCN(c3cccc(C(C)C)c3)CC2)CC1.Cl.Cl`, with 252 °C.
Then `N#CCC(=O)N[C@H]1CC[C@H](CCN2CCN(c3ccc(F)c(F)c3F)CC2)CC1` [Example 450, 2-Cyano-N-(4-{2-[4-(2,3,4-trifluorophenyl)piperazin-1-yl]ethyl}cyclohexyl)acetamide], with 207 °C.
Then `N#CCCC(=O)N[C@H]1CC[C@H](CCN2CCN(c3cccc(F)c3)CC2)CC1` [Example 412, 3-Cyano-N-(4-{2-[4-(3-fluorophenyl)piperazin-1-yl]ethyl}cyclohexyl)propanamide], with 186 °C; and `CCCNC(=O)C[C@H]1CC[C@H](CCN2CCN(c3ccccc3F)CC2)CC1` [Example 306, 2-(4-{2-[4-(2-Fluorophenyl)-piperazin-1-yl]ethyl}cyclohexyl)-N-propylacetamide], with 150 °C.
Regarding `N#CCC(=O)N[C@H]1CC[C@H](CCN2CCN(c3cc(F)cc(F)c3)CC2)CC1` [Example 159, 2-Cyano-N-(4-{2-[4-(3,5-difluorophenyl)piperazin-1-yl]ethyl}cyclohexyl)acetamide trans/cis 95/5], the melting point turned out to be 196 °C.
As to `CC(=O)CN1CCC(CCN2CCN(c3cccc(Cl)c3C#N)CC2)CC1.Cl.Cl`, the melting point came out at 284 °C.
`CC(=O)CN1CCC(CCN2CCN(c3ccc(C)c(F)c3)CC2)CC1.Cl.Cl` had a melting point of 276 °C.
The compound `O=C(CC(F)(F)F)N[C@H]1CC[C@H](CCN2CCN(c3ccccc3F)CC2)CC1` [Example 87, 3,3,3-Trifluoro-N-(4-{2-[4-(2-fluorophenyl)piperazin-1-yl]ethyl}cyclohexyl)propanamide] yielded a melting point of 207 °C.
Then `Cc1cc(N2CCN(CC[C@H]3CC[C@H](NC(=O)CCCC#N)CC3)CC2)c(Cl)cc1F` [Example 390], with 158 °C; and `CCOCC(=O)N[C@H]1CC[C@H](CCN2CCN(c3cccc(F)c3F)CC2)CC1` [Example 112, N-(4-{2-[4-(2,3-Difluorophenyl)-piperazin-1-yl]ethyl}cyclohexyl)-2-ethoxyacetamide], with 140 °C; and `COCC(=O)N[C@H]1CC[C@H](CCN2CCN(c3ccc(Cl)c(Cl)c3F)CC2)CC1` [Example 719, N-(4-{2-[4-(3,4-Dichloro-2-fluorophenyl)piperazin-1-yl]ethyl}cyclohexyl)-2-methoxyacetamide], with 172 °C.
Then `CCOCC(=O)N[C@H]1CC[C@H](CCN2CCN(c3ccc(F)cc3F)CC2)CC1` [Example 503, N-(4-{2-[4-(2,4-Difluorophenyl)piperazin-1-yl]ethyl}cyclohexyl)-2-ethoxyacetamide], with 130 °C.
Then `O=C(N[C@H]1CC[C@H](CCN2CCN(c3ccccc3F)CC2)CC1)C1=CCCCC1` [Example 67, Cyclohex-1-enecarboxylic acid (4-{2-[4-(2-fluorophenyl)-piperazin-1-yl]ethyl}cyclohexyl)-amide], with 209 °C; and `COc1ccccc1N1CCN(CC[C@H]2CC[C@H](NC(=O)CCCC#N)CC2)CC1` [Example 382, 4-Cyano-N-(4-{2-[4-(2-methoxyphenyl)piperazin-1-yl]ethyl}cyclohexyl)butanamide], with 147 °C; and `CC(=O)CN1CCC(CCN2CCN(c3cccc(Cl)c3)CC2)CC1` [Example 29, 1-(4-{2-[4-(3-Chlorophenyl)-piperazin-1-yl]ethyl}piperidin-1-yl)propan-2-one], with 114 °C.
As for `CCOCC(=O)N[C@H]1CC[C@H](CCN2CCN(c3ccc(C)c(Cl)c3)CC2)CC1.Cl`, the melting point worked out at 162 °C.
With `CC(=O)C(=O)N1CCC(CCN2CCN(c3cccc(Cl)c3Cl)CC2)CC1.Cl`, the melting point was 244 °C.

Usually melting point stands for the temperature of the solid-liquid transition.
